The text below walks through data of US6627580B2, “Chelating agents and their manganic chelates” (Akzo Nobel N.V., priority 1997, dated 2003).

The structures appear in SMILES notation.

A short description of data set [1]: Hydrolytic stability of the new manganic chelate (step-wise alkalisation with dilute sodium hydroxide). The data set is classed as physicochemical. The source says: The manganic chelate solution from Example 2 was alkalised step-wise with dilute sodium hydroxide. Samples were taken at various pH and set aside for later inspection.
The nature of data set [2]: Shaking test with calcium carbonate. Type of data set: physicochemical. The source says: The test in Example 6 was repeated with the new manganic chelate but with analytical grade calcium carbonate instead of soil. The pH of the suspension was 8.5.
Data set [3] can be described thus: Soil tests with the new manganic chelate and other manganese sources. Type of data set: physicochemical. The protocol: A soil sample was taken from a sugar-beet field in Helsingborg, Sweden. It was sifted and homogenised and analysed by a certified agricultural laboratory by so-called ICP after extraction with dilute acetic of EDTA.
35 g portions of the slightly moist soil were transferred to 250 ml glass bottles together with 120 ml of dilute solutions containing about 30 ppm manganese. The solutions to be tested were made from:
The bottles were rotated in a tumbling device at about 1 revolution per second for a period of 19 days. […] The clear liquid samples were analysed by ICP.

For data set [4] the following is noted: Ahrland et al. 1990, cited from earlier work.
Data set [5] is described as follows: Comparative test with a reduced chelant (manganic chelate of borohydride-reduced chelant). The data set is classed as physicochemical. The protocol:
A solution of the chelant according to Example 1 was adjusted to a concentration of 10 mmoles/L and a pH of 5. Sodium borohydride was added at 5 minute intervals until the yellow salicylimine colour disappeared. The pH was then adjusted to 8, and the manganic chelate was generated as described in Example 2 for a final pH of 8.

A short description of data set [6]: Tropolone chelant with molar equivalents of manganic and ferric ions. The conditions noted are these: pH 9. Type of data set: physicochemical.
Data set [7] can be described thus: pH stability of manganic and ferric chelates of the tropolone chelant. Type of data set: physicochemical. The protocol: The manganic chelate of the new chelant was prepared in analogy with Example 2 and formed a brown solution stable at pH 10.
With ferric iron ions the chelant formed a red solution at pH 5. On raising the pH the red colour started to fade at pH 7-8.

Data set [8] in a line: Formation and hydrolytic stability of a ferric chelate. Type of data set: physicochemical. The conditions noted are these: for Appearance of ferric chelate solution: colour observed during the next 1-2 hours. The protocol: 2 ml of the chelate solution from Example 1 (0.08 mmole) was diluted with 15 ml water and 1 ml of 0.05 molar ferric chloride solution was added dropwise. The pH was brought to 7 with dilute sodium hydroxide, giving a dark wine red solution. The solution was then gradually alkalised by the addition of dilute sodium hydroxide, and the colour was observed during the next 1-2 hours.

The nature of data set [9]: Preference of the new chelant for manganic ions over ferric ions (citrate solutions, pH 7.8). Type of data set: physicochemical. Conditions: for colour developed: pH 7.8. The protocol: In order to show the preference of the new chelants for manganic ions over ferric ions, stable, slightly alkaline solutions of these ions were prepared by chelation with two moies of citric acid. Both solutions were adjusted with sodium hydroxide to a pH of 7.8 at a concentration of 0.001 mmole/ml of manganese and iron, respectively. Three experiments were made for comparison:
a) of each solution 10 ml (0.01 mmole) was mixed, and 0.25 g of the 0.04 molar chelate (or ligand) solution from. Example 1 […] was added.
b) 10 ml of manganic citrate solution was mixed with 0.25 g of the chelate solution.
c) 10 ml of the ferric citrate solution was mixed with 0.25 g of the chelate solution.

[10] abbreviates: b) manganic citrate solution only.
The mark [11] stands for this setting: c) ferric citrate solution only.

Consider `O=C([O-])CC(N=Cc1ccccc1[O-])C(CC(=O)[O-])N=Cc1ccccc1[O-].[Mn+3]` (stereo not drawn) [Example 2], for which, in [1] (manganic chelate), the “pH up to which the manganic chelate forms stable solutions / is stable to hydrolysis” value is listed as “at least 10.5”. Further, the “appearance of manganic chelate solution” value in [1] (pH 8, after 1 h) was “clear,”; in data set [1] (pH 8, after 24 hours) it was “clear, same colour”; in data set [1] (pH 8, after 5 days) it was “clear,”; in data set [1] (pH 8, immediately), “clear ochre”; in data set [1] (pH 9, after 1 h), “clear,”; in [1] (pH 9, after 24 hours), “clear, same colour”. Besides, the “appearance of manganic chelate solution” value in [1] (pH 9, after 5 days) is recorded as “clear,”; in data set [1] (pH 9, immediately), “clear, same colour”; in data set [1] (pH 10.5, after 1 h) it was “clear,”; in [1] (pH 10.5, after 24 hours), “clear, same colour”; in data set [1] (pH 10.5, after 5 days), “clear,”; in data set [1] (pH 10.5, immediately), “clear, same colour”. The “appearance of manganic chelate solution” value in data set [1] (pH 11, after 1 h) is “clear,”; in [1] (pH 11, after 24 hours), “slight precipitate”; in data set [1] (pH 11, after 5 days) it was “slight”; in data set [1] (pH 11, immediately) it was “clear, same colour”; in data set [1] (pH 11.3, after 1 h) it was “precipitation”; in [1] (pH 11.3, after 24 hours), “considerable dark”. Besides, the “appearance of manganic chelate solution” value in data set [1] (pH 11.3, after 5 days) is given as “as before”; in data set [1] (pH 11.3, immediately), “clear, same colour”. The “manganese content in the liquid phase” value in data set [2] (calcium carbonate suspension, pH 8.5, remained constant for several weeks) is recorded as 30 ppm. In addition, the “colour of liquid phase” value in data set [2] (calcium carbonate suspension, pH 8.5, several weeks) was “remained the same yellow ochre”. Moreover, in data set [2] (for at least several weeks), the “solubility in shaking test with calcium carbonate” value is listed as “completely soluble”. In data set [2] (pH 8.5 in the presence of calcium), the hydrolytic stability entry is recorded as “excellent hydrolytic stability”. Also, in data set [3] (after 19 days with soil of low manganese, high iron content), the “soluble manganese retained, of its original content” value was “about 50%”. In data set [3] (soil test), the “time to visible colour change of centrifuged sample to orange yellow” value is given as “after a week”.

For the compound `O=C(O)C(NCCNC(C(=O)O)c1ccccc1O)c1ccccc1O.[Mn+3]` (stereo not drawn) [manganic EDDHA, reference compound], the “pKa for hydrolysis of manganic chelate” value in data set [4] (manganic chelate) is 9.3. For the same compound, in data set [3] (soil test), the “time to colour change of centrifuged sample from brownish to red (manganese replaced by ferric iron)” value was at most 1 days.

`O=C([O-])CC(NCc1ccccc1[O-])C(CC(=O)[O-])NCc1ccccc1[O-].[Mn+3]` (stereo not drawn) [Example 4]: the “stability to hydrolysis of manganic chelate of reduced chelant” value in data set [5] is “very unstable to hydrolysis”. Also, in data set [5] (final pH of 8), the “result on generating the manganic chelate” value is reported as “immediate dark precipitate”. Further, the manganese dioxide precipitation result in [5] (neutral pH) was “started to precipitate immediately”.

On to `O=C(O)CC(N=c1cccccc1O)C(CC(=O)O)N=c1cccccc1O` (stereo not drawn) [Example 9], for which, in data set [6], the “colour with molar equivalents of both manganic and ferric ions (indicating preference for manganic ions)” value is listed as “stable brown colour”. Besides, the “pH at which the red colour started to fade” value in data set [7] (ferric chelate, on raising the pH) was 7-8. For the same compound, the “appearance with ferric iron ions” value in data set [7] (ferric chelate, pH 5) is “red solution”; in data set [7] (ferric chelate, pH 10), “turned yellow, with precipitation of the ferric hydroxide”. Besides, in data set [7] (manganic chelate, pH 10), the “stability of manganic chelate solution (brown)” value is on record as “stable”.

Regarding `O=C([O-])CC(N=Cc1ccccc1[O-])C(CC(=O)[O-])N=Cc1ccccc1[O-].[Fe+3]` (stereo not drawn) [Example 5], in data set [8], the “pH at which the ferric chelate starts to hydrolyse” value was 9. Further, the “Appearance of ferric chelate solution” value in data set [8] (pH 7) is recorded as “Wine red”; in data set [8] (pH 8), “Wine red”; in data set [8] (pH 9), “Slightly lighter wine red”; in data set [8] (pH 10), “Lighter wine red”; in data set [8] (pH 11), “Much lighter wine red”.

Consider `O=C(O)CC(N=Cc1ccccc1O)C(CC(=O)O)N=Cc1ccccc1O` (stereo not drawn) [Example 1], for which the “stability of the yellow colour” value in data set [9] (a) manganic citrate + ferric citrate solutions) and in data set [9] (setting [10]) was “stable for weeks” throughout. Moreover, the colour developed result is “yellow ochre colour” in data set [9] (a) manganic citrate + ferric citrate solutions (0.01 mmole each)), “yellow ochre colour” in data set [9] (setting [10]) and “red colour” in data set [9] (setting [11]). In data set [9] (setting [11]), the “time until solution turned completely red” value was “about one hour”. Further, in data set [9] (near neutral pH, yellow colour stable for at least several weeks), the “selectivity between ferric and manganic ions” value is given as “remarkable preference for manganic ion”.

For the compound `O=C(O)C(NCCNC(C(=O)O)c1ccccc1O)c1ccccc1O` (stereo not drawn) [EDDHA, ethylenediamine-di-2-hydroxyphenylacetic acid], in data set [4] (ferric chelate), the “pKa for hydrolysis of ferric chelate” value is 12.7.
